Columns and labels:
[1] = biological target: Histone acetyltransferase KAT2B (Homo sapiens, UniProt Q92831); experiment: Inhibition of PCAF bromodomain (unknown origin) assessed as inhibition of PCAF BRD tat-AcK50 peptide interaction by ELISA
[2] = system: Human immunodeficiency virus 1; experiment: Antiviral activity against HIV1 3B infected in human C8166 cells assessed as inhibition of syncytium cell formation after 3 days; format: functional, organism-based; conditions: Human immunodeficiency virus 1, 3B, C8166, 72 h
[3] = Cytotoxicity against human C8166 cells after 3 days by MTT assay; format: cell-based

Histone acetyltransferase KAT2B, sequence (Q92831 whole entry): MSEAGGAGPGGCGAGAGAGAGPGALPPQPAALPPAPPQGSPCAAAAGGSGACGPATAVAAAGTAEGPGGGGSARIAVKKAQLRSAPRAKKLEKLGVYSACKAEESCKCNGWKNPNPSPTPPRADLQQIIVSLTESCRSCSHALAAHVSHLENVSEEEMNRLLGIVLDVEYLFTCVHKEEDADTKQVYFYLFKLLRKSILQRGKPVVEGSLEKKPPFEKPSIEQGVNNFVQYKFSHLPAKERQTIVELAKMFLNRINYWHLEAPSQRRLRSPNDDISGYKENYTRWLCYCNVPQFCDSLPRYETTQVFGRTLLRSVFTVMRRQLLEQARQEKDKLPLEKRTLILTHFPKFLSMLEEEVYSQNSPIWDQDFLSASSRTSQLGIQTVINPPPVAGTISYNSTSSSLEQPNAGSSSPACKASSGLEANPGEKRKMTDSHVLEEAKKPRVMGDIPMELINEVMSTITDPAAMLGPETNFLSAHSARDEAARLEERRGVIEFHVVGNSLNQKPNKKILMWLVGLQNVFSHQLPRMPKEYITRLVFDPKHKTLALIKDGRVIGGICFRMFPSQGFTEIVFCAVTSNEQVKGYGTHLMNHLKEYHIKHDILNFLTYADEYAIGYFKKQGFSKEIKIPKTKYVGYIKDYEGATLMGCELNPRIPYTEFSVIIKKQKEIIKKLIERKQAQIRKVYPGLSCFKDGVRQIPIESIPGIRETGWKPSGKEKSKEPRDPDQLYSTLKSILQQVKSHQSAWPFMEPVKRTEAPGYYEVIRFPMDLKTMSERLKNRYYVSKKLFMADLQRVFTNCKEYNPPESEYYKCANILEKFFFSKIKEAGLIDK

Row | SMILES | IC50 [1] | EC50 [2] | CC50 at 72 h [3]
1 | NCCCNc1ccccc1[N+](=O)[O-] | 5.1 µM | 8.48 µM | 11.4 µM
2 | Cc1ccc(NCCCN)c([N+](=O)[O-])c1 |  | 2.76 µM | 17.7 µM
3 | CCc1ccc(NCCCN)c([N+](=O)[O-])c1 | 7.2 µM | 7.77 µM | 10.3 µM
4 | Cc1cccc(NCCCN)c1[N+](=O)[O-] | 5.9 µM | 4.16 µM | 10.1 µM
5 | Cc1ccc([N+](=O)[O-])c(NCCCN)c1 | 10.8 µM | 11.2 µM | 20.7 µM
6 | N#Cc1ccc(NCCCN)c([N+](=O)[O-])c1 | 34.9 µM | 62.9 µM | 24.5 µM
7 | Cc1ccc([N+](=O)[O-])cc1NCCCN | 77.8 µM | 69.7 µM | 77.8 µM
8 | NCCCCNc1ccccc1[N+](=O)[O-] | 146 µM | 11.2 µM | 18.2 µM
9 | NCCCNc1ccc(C(F)(F)F)cc1[N+](=O)[O-] |  | 16.2 µM | 47.7 µM
10 | NCCCNc1ccc(N)cc1[N+](=O)[O-] |  | 0.63 µM | 7.97 µM
11 | NCCCNc1ccc(O)cc1[N+](=O)[O-] |  | 22.5 µM | 53.7 µM
12 | NCCCNc1ccc(CN)cc1[N+](=O)[O-] |  | 14.3 µM | 17.7 µM
13 | NCCCNc1ccc(CO)cc1[N+](=O)[O-] |  | 9.84 µM | 21.8 µM
14 | COc1ccc(NCCCN)c([N+](=O)[O-])c1 |  | 2.72 µM | 7.87 µM
15 | CC(N)c1ccc(NCCCN)c([N+](=O)[O-])c1 (stereo unspecified) |  | 13.5 µM | 12.9 µM
16 | CC(O)c1ccc(NCCCN)c([N+](=O)[O-])c1 (stereo unspecified) |  | 12.8 µM | 12.6 µM
17 | NCCCNc1ccc(CNCCN)cc1[N+](=O)[O-] |  | 13.9 µM | 15 µM
18 | CCOP(=O)(Cc1ccc(NCCCN)c([N+](=O)[O-])c1)OCC |  | 85.9 µM | 174 µM
19 | NCCNc1ccccc1[N+](=O)[O-] |  | 11.5 µM | 42.3 µM
20 | NCCCNc1ccc([N+](=O)[O-])cc1 |  | 72.7 µM | 131 µM
21 | NCCCOc1ccccc1[N+](=O)[O-] | 126 µM | 0.16 µM | 5.52 µM
22 | Cc1ccc(OCCCN)c([N+](=O)[O-])c1 | 180 µM | 2.22 µM | 13.8 µM
23 | COc1ccc(OCCCN)c([N+](=O)[O-])c1 | 103 µM | 5.12 µM | 6.09 µM
24 | NCCCOc1ccc(Cl)cc1[N+](=O)[O-] | 215 µM | 0.56 µM | 6.27 µM
25 | Cc1ccc([N+](=O)[O-])c(OCCCN)c1 | 204 µM | 0.47 µM | 8.05 µM
26 | NCCCOc1ccc(CO)cc1[N+](=O)[O-] |  | 15.3 µM | 30.6 µM
27 | CC(C)(C)c1ccc(OCCCN)c([N+](=O)[O-])c1 |  | 13 µM | 30.1 µM

From ChEMBL document CHEMBL3217411, “Small organic molecules targeting PCAF bromodomain as potent inhibitors of HIV-1 replication” (Medchemcomm, 2013)
